Results as given in EP4566596A1, “ANTI-HBV AGENT” (RIKEN, priority 2022, dated 2024).
“And” between values parts separate entries of the source, which are not always exact repeats. Equal values may be shown once. Read-outs that look alike come from different tables or passages of the source.

Assays:
[1] = Mouse blood drug concentrations after oral administration (LC-MS/MS); format: in vivo, mice (ICR strain); settings: ICR mice, plasma; for half-life: mouse, read-out: Elimination half-life
Description: A compound was dissolved in a mixture of ethanol and polysorbate 80 (1:1) to make 10 mg/mL, and the resulting mixture was diluted with saline to 1 mg/mL and orally administered to mice (ICR strain, males, 6-10 weeks old) using a sonde. Blood was collected from the tail vein at 0.25, 0.5, 1, 2, 4, and 7 hours after administration, and plasma was obtained. An internal standard (ritonavir) was added to 10 µL of plasma, and a deproteinized sample was used for measurement. The measurement was performed according to a liquid chromatography-tandem mass spectrometry method using a Shimadzu LCMS-8050 system. The analytical conditions were as follows. A COSMOSIL 3C18-MS-II (2.0 ID × 50 mm; manufactured by Nacalai Tesque, Inc.) column was used. The column temperature was 40°C, and the autosampler temperature was 4°C. The mobile phase was a combination of Phase A: water/acetonitrile = 9/1 (v/v) and Phase B: acetonitrile, and the flow rate was 0.6 mL/min. 2 µL of the sample was injected. The gradient elution conditions were 0 to 0.9 min, 5% B; 0.9 to 2.1 min, 5 to 95% B; 2.1 to 5.5 min, 95% B; 5.5 to 5.51 min, 95 to 5% B; and 5.51 to 6.0 min, 5% B. The cleaning solution used was an isopropanol/methanol/acetonitrile/water = 1/1/1/1 (v/v/v/v, %) solution containing 0.1% formic acid. The ionization method was ESI, and the collected data was processed using LabSolutions software (Ver. 5.97 SP1, Shimadzu Corporation).

cccDNA = assay: Effect of suppressing cccDNA in HBV-infected PXB cells (qPCR); format: cell-based, HBV genotype C; settings: 7 days treatment, FIG. 3
Description: Fresh human hepatocytes derived from PXB mice (PXB cells; manufactured by PhoenixBio Co., Ltd.) were spread in a collagen-coated 96-well plate (manufactured by FALCON) at a density of 0.7 × 10^5 cells/well, and cultured for 7 days using a dHCGM medium (manufactured in house) at 37°C and 5% CO2. HBV genotype C (manufactured by PhoenixBio Co., Ltd.) was added to the culture medium together with 4% PEG 8000 at a final density of 3.5 × 10^5 copies/well, and the medium was replaced after 1 day, and every third or fourth day thereafter. A test compound was added after 28 days, and cells in three wells per condition were cultured. Then, replacement with a medium containing the test compound was also performed after 3 or 4 days, and after 7 days, DNA was extracted and purified from the cells using Agencourt DNAdvance (manufactured by Beckman-Coulter). […]

[2] = format: in vitro ADME, mouse
Description: (§1) Then, 50 µL of a NADPH regeneration system (85 mM D-glucose-6-phosphate, 10 mM β-nicotinamide adenine dinucleotide phosphate, oxidized form, and 10 U/mL glucose-6-phosphate dehydrogenase, all manufactured by Oriental Yeast Co., Ltd.) was added and mixed, and incubation was started. The incubation starting point was set to 0 minutes of reaction. At 0, 30, and 60 minutes of reaction, a 50-µL fraction of the reaction solution was collected into 200 µL of an ice-cooled 0.5 µM propranolol/acetonitrile solution, and the reaction was stopped. The obtained preparative solution was transferred to a protein removal plate (manufactured by Phenomenex), and after suction filtration through a manifold for 96-well plates, the filtrate was collected into a 96-well plate for collection. 100 µL of the collected filtrate was transferred to a 96-well plate and dried in a nitrogen-blowing high-speed parallel concentrator (Turbo Vap 96, manufactured by Biotage). After dissolving the dried sample with the initial mobile phase, the target compound was quantified by liquid chromatography-tandem mass spectrometry (LC-MS/MS). […] As technical replicates, the residual rate was calculated in two independent series for each compound to be evaluated for each animal species.
(§2) The configuration of LC-MS/MS is as follows: high-performance liquid chromatography: Nexera X2 UPLC system (manufactured by Shimadzu), column: ACQUITY UPLC BEH C18 Column, 130A, 1.7 µm, 2.1 ×× 50 mm (manufactured by Waters), guard column: ACQUITY UPLC BEH C18 VanGuard Column, 130A, 1.7 µm, 2.1 ×× 50 mm (manufactured by Waters), mobile phase A: 0.1% aqueous formic acid solution/acetonitrile (9:1, v/v), mobile phase B: 0.1% aqueous formic acid solution/acetonitrile (1:9, v/v), gradient conditions: 0 to 1 min; 30% B, 1 to 1.5 min; 30 to 100% B, 1.5 to 3.5 min; 100% B, and 3.5 to 5 min; 30% B, and mass spectrometer: QTRAP 4500 (manufactured by AB Sciex) were used, a measurement target compound was ionized using an ESI method, and target ions were measured by multiple reaction monitoring. […]

[3] = format: in vitro ADME, human
Description: as §1, §2

HBV DNA from Hep2.2.15.7 = assay: Anti-HBV activity using hepatitis B virus-producing cultured cells (HBV DNA in culture medium, qPCR); format: cell-based; settings: 144 h, Hep2.2.15.7 cells, HBV DNA in culture medium after 6 days
Description: Hep2.2.15.7 cells were spread in a 96-well plate (manufactured by TPP) at a density of 1 × 10^5 cells/well and cultured at 37°C and 5% CO2 using a culture medium containing DMEM/F12-GlutaMAX (manufactured by Thermo Fisher Scientific Inc.), 10% fetal bovine serum, 100 U/ml penicillin, 100 µg/ml streptomycin (manufactured by Thermo Fisher Scientific Inc.), and 5 µg/ml insulin (manufactured by Wako Pure Chemical). A test compound was added to the culture, and cells in three wells per condition were cultured. After 3 days, replacement with a medium containing the test compound was performed. After 6 days, cell viability was determined by quantitatively measuring intracellular mitochondrial activity. This was performed by measuring absorbance at 490 nm using Cell Proliferation Kit II (XTT) (manufactured by Roche) and a plate reader, EnSight (manufactured by PerkinElmer). At the same time, HBV-derived DNA was extracted and purified from the cell culture medium using Agencourt Genfind v2 (manufactured by Beckman-Coulter). […].

[4] = format: in vitro ADME, rat
Description: as §1, §2

pgRNA in PXB cells = assay: Anti-HBV activity using hepatitis B virus-infected primary cultured human hepatocytes (pgRNA, qPCR); format: cell-based; settings: 7 days treatment; for effect of suppressing pgRNA: FIG. 3; for IC50: Hepatitis B virus, Hepatocyte, compound added after 28 days
HBc T33N = HBc T33N (Hepatitis B virus genotype D subtype ayw, UniProt P03146, T33N); assay: HBV replication assay in HeLa cells, HBc T33N mutant; format: cell-based
HBV genotype C = assay: Anti-HBV activity in hepatitis B virus-infected human hepatocyte chimeric mice (serum HBV DNA); format: in vivo, Human hepatocyte-transplanted chimeric mice (PXB mice); settings: 10 mg/kg orally twice daily for 21 days, FIG. 4
HBc (1-149) = assay: Capsid formation mechanism: gel filtration and electron microscopy of recombinant HBc (1-149); format: biochemical, HBV genotype C
Description: An expression plasmid in which the ubiquitin-like protein SUMO serving as a tag was fused to the sequence of the association domain (1-149) of HBc of genotype C was prepared and introduced into the Escherichia coli KRX strain, and a recombinant protein was expressed and purified. After the recombinant HBc (1-149) was cleaved with a SUMO protease to remove the tag, the dimer peak was separated by gel filtration and used for subsequent analyses. […]
This behavior is similar to that of the compound CBT-078. […] A fraction was collected from the elution peak at the position corresponding to the capsid, and a negatively stained image was captured using an electron microscope.

HBV = assay: Effect of suppressing HBsAg, HBeAg and pgRNA in primary cultured human hepatocytes infected with HBV; format: cell-based; settings: concentrations of 0.01 to 100 mM, FIG. 2
Description: Primary cultured human hepatocytes infected with HBV were treated with the compound CBT-289 or Entecavir (ETV) at concentrations of […], and the HBsAg and HBeAg levels in the medium and the pgRNAlevel in the cells were measured.

HBc T33N, sequence (P03146 whole entry T33N, looked up): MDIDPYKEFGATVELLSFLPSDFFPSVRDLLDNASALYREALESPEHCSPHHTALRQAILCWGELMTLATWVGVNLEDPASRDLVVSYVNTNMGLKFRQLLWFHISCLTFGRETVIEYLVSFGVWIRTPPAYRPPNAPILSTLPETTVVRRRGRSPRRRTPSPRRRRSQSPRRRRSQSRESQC

Cc1ccccc1NC(=O)c1cccc(C(=O)Nc2ccc(F)cc2)c1F [CBT-078, reference compound]
Maximum blood concentration [1]: 710 ng/mL | Time to reach maximum blood concentration [1]: 30 min | half-life ([1]; in vivo): 0.533 h | effect of suppressing cccDNA (cccDNA): did not have the effect of suppressing pgRNA or cccDNA | residual rate ([2]; Mouse liver microsomes, 0 min (baseline)): 100% | residual rate ([2]; Mouse liver microsomes, 30 min): 6% | residual rate ([2]; Mouse liver microsomes, 60 min): 0% | residual rate ([3]; Human liver microsomes, 0 min (baseline)): 100% | residual rate ([3]; Human liver microsomes, 30 min): 77% | residual rate ([3]; Human liver microsomes, 60 min): 60% and 58% | IC50 (HBV DNA from Hep2.2.15.7): 270 nM | residual rate ([4]; Rat liver microsomes, 0 min (baseline)): 100% | residual rate ([4]; Rat liver microsomes, 30 min): 53% and 52% | residual rate ([4]; Rat liver microsomes, 60 min): 35% and 34% | effect of suppressing pgRNA (pgRNA in PXB cells): did not have the effect of suppressing pgRNA

Cc1cc(C#N)ccc1NC(=O)c1cccc(C(=O)Nc2ccc(F)cc2)c1F [CBT-209]
Maximum blood concentration [1]: 250 ng/mL | Time to reach maximum blood concentration [1]: 120 min | half-life ([1]; male): 13.8 h | residual rate ([2]; mouse, 0 min, 1 µM, pH 7.4): 100% | antiviral activity against viruses with the HBc T33N mutation (HBc T33N): have antiviral activity even against viruses with the HBc T33N mutation | residual rate ([3]; human, 0 min, 1 µM, pH 7.4): 100% | IC50 (HBV DNA from Hep2.2.15.7): 39 nM | HBV DNA level in the serum (HBV genotype C): preferentially reduced compared with GLS4 or the vehicle | association state of HBc (1-149) by gel filtration (HBc (1-149); 11 µM HBc (1-149), 15 µM compound, overnight incubation at 4°C, FIG. 5): the elution peak shifted to the position corresponding to the capsid | stability of the capsids formed (HBc (1-149); 7 days of incubation, gel filtration and electron microscope): stable even after 7 days of incubation | residual rate ([4]; rat, 0 min, 1 µM, pH 7.4): 100%

CCCCNC(=O)c1ccc(NC(=O)c2cccc(C(=O)Nc3ccc(F)cc3)c2F)c(C)c1 [CBT-289]
effect of suppressing cccDNA (cccDNA): suppressed cccDNA and pgRNA in a concentration-dependent manner | IC50 (HBV DNA from Hep2.2.15.7): 74 nM | effect of suppressing pgRNA (pgRNA in PXB cells): suppressed cccDNA and pgRNA in a concentration-dependent manner | IC50 (pgRNA in PXB cells): 2480 nM | HBeAg level in the medium (HBV): suppressed HBsAg, HBeAg, and pgRNAin a concentration-dependent manner | HBsAg level in the medium (HBV): suppressed HBsAg, HBeAg, and pgRNAin a concentration-dependent manner | pgRNA level in the cells (HBV): suppressed HBsAg, HBeAg, and pgRNAin a concentration-dependent manner

CCCNC(=O)c1ccc(NC(=O)c2cccc(C(=O)Nc3ccc(F)cc3)c2F)c(C)c1 [CBT-383]
IC50 (HBV DNA from Hep2.2.15.7): 910 nM | IC50 (pgRNA in PXB cells): 2330 nM

CCNC(=O)c1ccc(NC(=O)c2cccc(C(=O)Nc3ccc(F)cc3)c2F)c(C)c1 [CBT-384]
IC50 (HBV DNA from Hep2.2.15.7): 75 nM | IC50 (pgRNA in PXB cells): 16500 nM

Cc1cc(C(=O)NC(C)(C)C)ccc1NC(=O)c1cccc(C(=O)Nc2ccc(F)cc2)c1F [CBT-385]
IC50 (HBV DNA from Hep2.2.15.7): 180 nM | IC50 (pgRNA in PXB cells): > 100000 nM

C=CCCNC(=O)c1ccc(NC(=O)c2cccc(C(=O)Nc3ccc(F)cc3)c2F)c(C)c1 [CBT-387]
IC50 (HBV DNA from Hep2.2.15.7): 41 nM | IC50 (pgRNA in PXB cells): 3410 nM

CCCCCCNC(=O)c1ccc(NC(=O)c2cccc(C(=O)Nc3ccc(F)cc3)c2F)c(C)c1 [CBT-388]
IC50 (HBV DNA from Hep2.2.15.7): 180 nM | IC50 (pgRNA in PXB cells): 4590 nM

CCCCCCCCCCNC(=O)c1ccc(NC(=O)c2cccc(C(=O)Nc3ccc(F)cc3)c2F)c(C)c1 [CBT-389]
IC50 (HBV DNA from Hep2.2.15.7): 470 nM | IC50 (pgRNA in PXB cells): 100000 nM

Cc1cc(C(=O)NCCC(C)C)ccc1NC(=O)c1cccc(C(=O)Nc2ccc(F)cc2)c1F [CBT-390]
IC50 (HBV DNA from Hep2.2.15.7): 61 nM | IC50 (pgRNA in PXB cells): 730 nM

CCC[C@@H](C)NC(=O)c1ccc(NC(=O)c2cccc(C(=O)Nc3ccc(F)cc3)c2F)c(C)c1 [CBT-391]
IC50 (HBV DNA from Hep2.2.15.7): 95 nM | IC50 (pgRNA in PXB cells): 2480 nM

C=C1[C@H](CO)[C@@H](O)C[C@@H]1n1cnc2c(=O)[nH]c(N)nc21 [ETV, Entecavir, reference compound]
HBeAg level in the medium (HBV): did not suppress them | HBsAg level in the medium (HBV): did not suppress them | pgRNA level in the cells (HBV): did not suppress them
